From ChEMBL document CHEMBL6120977, “Structure-Affinity-Pharmacokinetics Relationships of Novel 18F-Labeled 1,4-Diazepane Derivatives for Orexin 1 Receptor Imaging” (J Med Chem, 2024)

Columns and labels:
[1] = Biodistribution in male ddY mouse intestine administered intravenously and measured at 2 mins postinjection by gamma counter analysis; format: ADME, organism-based; conditions: in vivo, iv
[2] = Biodistribution in male ddY mouse liver administered intravenously and measured at 60 mins postinjection by gamma counter analysis; format: ADME, organism-based; conditions: in vivo, iv, 1 h
[3] = Biodistribution in male ddY mouse kidney administered intravenously and measured at 10 mins postinjection by gamma counter analysis; format: ADME, organism-based; conditions: in vivo, iv
[4] = Biodistribution in male ddY mouse kidney administered intravenously and measured at 60 mins postinjection by gamma counter analysis; format: ADME, organism-based; conditions: in vivo, iv, 1 h
[5] = Biodistribution in male ddY mouse kidney administered intravenously and measured at 30 mins postinjection by gamma counter analysis; format: ADME, organism-based; conditions: in vivo, iv, 0.5 h
[6] = Biodistribution in male ddY mouse intestine administered intravenously and measured at 30 mins postinjection by gamma counter analysis; format: ADME, organism-based; conditions: in vivo, iv, 0.5 h
[7] = Biodistribution in male ddY mouse brain administered intravenously and measured at 10 mins postinjection by gamma counter analysis; format: ADME, organism-based; conditions: in vivo, iv
[8] = Biodistribution in male ddY mouse stomach administered intravenously and measured per organ at 60 mins postinjection by gamma counter analysis; format: ADME, organism-based; conditions: in vivo, iv, 1 h
[9] = Biodistribution in male ddY mouse liver administered intravenously and measured at 30 mins postinjection by gamma counter analysis; format: ADME, organism-based; conditions: in vivo, iv, 0.5 h
[10] = Biodistribution in male ddY mouse pancreas administered intravenously and measured at 2 mins postinjection by gamma counter analysis; format: ADME, organism-based; conditions: in vivo, iv
[11] = Biodistribution in male ddY mouse intestine administered intravenously and measured at 60 mins postinjection by gamma counter analysis; format: ADME, organism-based; conditions: in vivo, iv, 1 h
[12] = Biodistribution in male ddY mouse heart administered intravenously and measured at 2 mins postinjection by gamma counter analysis; format: ADME, organism-based; conditions: in vivo, iv
[13] = Biodistribution in male ddY mouse lung administered intravenously and measured at 30 mins postinjection by gamma counter analysis; format: ADME, organism-based; conditions: in vivo, iv, 0.5 h
[14] = Biodistribution in male ddY mouse blood administered intravenously and measured at 30 mins postinjection by gamma counter analysis; format: ADME, organism-based; conditions: in vivo, iv, 0.5 h
[15] = Biodistribution in male ddY mouse pancreas administered intravenously and measured at 60 mins postinjection by gamma counter analysis; format: ADME, organism-based; conditions: in vivo, iv, 1 h
[16] = Biodistribution in male ddY mouse brain administered intravenously and measured at 60 mins postinjection by gamma counter analysis; format: ADME, organism-based; conditions: in vivo, iv, 1 h
[17] = Biodistribution in male ddY mouse bone administered intravenously and measured at 10 mins postinjection by gamma counter analysis; format: ADME, organism-based, Bone element; conditions: in vivo, iv
[18] = Biodistribution in male ddY mouse lung administered intravenously and measured at 2 mins postinjection by gamma counter analysis; format: ADME, organism-based; conditions: in vivo, iv
[19] = Biodistribution in male ddY mouse liver administered intravenously and measured at 2 mins postinjection by gamma counter analysis; format: ADME, organism-based; conditions: in vivo, iv
[20] = Biodistribution in male ddY mouse blood administered intravenously and measured at 10 mins postinjection by gamma counter analysis; format: ADME, organism-based; conditions: in vivo, iv
[21] = Biodistribution in male ddY mouse heart administered intravenously and measured at 60 mins postinjection by gamma counter analysis; format: ADME, organism-based; conditions: in vivo, iv, 1 h
[22] = Biodistribution in male ddY mouse heart administered intravenously and measured at 30 mins postinjection by gamma counter analysis; format: ADME, organism-based; conditions: in vivo, iv, 0.5 h
[23] = Biodistribution in male ddY mouse brain administered intravenously and measured at 2 mins postinjection by gamma counter analysis; format: ADME, organism-based; conditions: in vivo, iv
[24] = Biodistribution in male ddY mouse blood administered intravenously and measured at 2 mins postinjection by gamma counter analysis; format: ADME, organism-based; conditions: in vivo, iv
[25] = Biodistribution in male ddY mouse bone administered intravenously and measured at 60 mins postinjection by gamma counter analysis; format: ADME, organism-based, Bone element; conditions: in vivo, iv, 1 h
[26] = Biodistribution in male ddY mouse lung administered intravenously and measured at 60 mins postinjection by gamma counter analysis; format: ADME, organism-based; conditions: in vivo, iv, 1 h
[27] = Biodistribution in male ddY mouse liver administered intravenously and measured at 10 mins postinjection by gamma counter analysis; format: ADME, organism-based; conditions: in vivo, iv
[28] = Biodistribution in male ddY mouse intestine administered intravenously and measured at 10 mins postinjection by gamma counter analysis; format: ADME, organism-based; conditions: in vivo, iv
[29] = Biodistribution in male ddY mouse blood administered intravenously and measured at 60 mins postinjection by gamma counter analysis; format: ADME, organism-based; conditions: in vivo, iv, 1 h
[30] = Biodistribution in male ddY mouse lung administered intravenously and measured at 10 mins postinjection by gamma counter analysis; format: ADME, organism-based; conditions: in vivo, iv
[31] = Biodistribution in male ddY mouse stomach administered intravenously and measured per organ at 2 mins postinjection by gamma counter analysis; format: ADME, organism-based; conditions: in vivo, iv
[32] = Biodistribution in male ddY mouse brain administered intravenously and measured at 30 mins postinjection by gamma counter analysis; format: ADME, organism-based; conditions: in vivo, iv, 0.5 h
[33] = Biodistribution in male ddY mouse spleen administered intravenously and measured at 60 mins postinjection by gamma counter analysis; format: ADME, organism-based; conditions: in vivo, iv, 1 h
[34] = Biodistribution in male ddY mouse bone administered intravenously and measured at 30 mins postinjection by gamma counter analysis; format: ADME, organism-based, Bone element; conditions: in vivo, iv, 0.5 h
[35] = Biodistribution in male ddY mouse heart administered intravenously and measured at 10 mins postinjection by gamma counter analysis; format: ADME, organism-based; conditions: in vivo, iv
[36] = Biodistribution in male ddY mouse stomach administered intravenously and measured per organ at 10 mins postinjection by gamma counter analysis; format: ADME, organism-based; conditions: in vivo, iv
[37] = Biodistribution in male ddY mouse pancreas administered intravenously and measured at 30 mins postinjection by gamma counter analysis; format: ADME, organism-based; conditions: in vivo, iv, 0.5 h
[38] = Biodistribution in male ddY mouse bone administered intravenously and measured at 2 mins postinjection by gamma counter analysis; format: ADME, organism-based, Bone element; conditions: in vivo, iv
[39] = Biodistribution in male ddY mouse kidney administered intravenously and measured at 2 mins postinjection by gamma counter analysis; format: ADME, organism-based; conditions: in vivo, iv
[40] = Biodistribution in male ddY mouse pancreas administered intravenously and measured at 10 mins postinjection by gamma counter analysis; format: ADME, organism-based; conditions: in vivo, iv
[41] = Biodistribution in male ddY mouse spleen administered intravenously and measured at 10 mins postinjection by gamma counter analysis; format: ADME, organism-based; conditions: in vivo, iv
[42] = Biodistribution in male ddY mouse spleen administered intravenously and measured at 30 mins postinjection by gamma counter analysis; format: ADME, organism-based; conditions: in vivo, iv, 0.5 h
[43] = Biodistribution in male ddY mouse stomach administered intravenously and measured per organ at 30 mins postinjection by gamma counter analysis; format: ADME, organism-based; conditions: in vivo, iv, 0.5 h
[44] = Biodistribution in male ddY mouse spleen administered intravenously and measured at 2 mins postinjection by gamma counter analysis; format: ADME, organism-based; conditions: in vivo, iv
[45] = target: T1, Orexin/Hypocretin receptor type 1 (Homo sapiens, UniProt O43613); assay: Displacement of […]5IBOM from OX1R (unknown origin) transfected in CHO cells assessed as inhibition constant incubated for 1.5 hrs by automated gamma-counter analysis; format: cell-based
T1 sequence (O43613 whole entry): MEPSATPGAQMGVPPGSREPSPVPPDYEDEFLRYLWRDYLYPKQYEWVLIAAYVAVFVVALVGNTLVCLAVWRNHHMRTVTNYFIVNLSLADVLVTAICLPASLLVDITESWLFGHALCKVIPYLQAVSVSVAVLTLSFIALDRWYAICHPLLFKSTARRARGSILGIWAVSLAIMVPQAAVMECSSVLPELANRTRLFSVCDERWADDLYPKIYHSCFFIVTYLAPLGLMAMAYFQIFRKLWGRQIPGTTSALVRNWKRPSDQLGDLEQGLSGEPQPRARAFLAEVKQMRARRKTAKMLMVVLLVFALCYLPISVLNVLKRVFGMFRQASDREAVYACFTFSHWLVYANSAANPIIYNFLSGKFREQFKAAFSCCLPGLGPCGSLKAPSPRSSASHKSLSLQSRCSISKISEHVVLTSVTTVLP

[46] = Selectivity ratio of Ki for OX2R (unknown origin) transfected in CHO cells to Ki for OX1R (unknown origin) transfected in CHO cells; format: cell-based
Homo sapiens = organism: Homo sapiens; assay: Selectivity ratio of IC50 for recombinant human OX2R extracted from HEK293T cell membrane to IC50 for recombinant human OX1R extracted from HEK293T cell membrane
Orexin receptor type 2 [47] = target: T2, Orexin receptor type 2 (Homo sapiens, UniProt O43614); assay: Displacement of [3H]EMPA from recombinant human OX2R extracted from HEK293T membrane by radioligand binding assay; format: cell membranes
T2 sequence (O43614 whole entry): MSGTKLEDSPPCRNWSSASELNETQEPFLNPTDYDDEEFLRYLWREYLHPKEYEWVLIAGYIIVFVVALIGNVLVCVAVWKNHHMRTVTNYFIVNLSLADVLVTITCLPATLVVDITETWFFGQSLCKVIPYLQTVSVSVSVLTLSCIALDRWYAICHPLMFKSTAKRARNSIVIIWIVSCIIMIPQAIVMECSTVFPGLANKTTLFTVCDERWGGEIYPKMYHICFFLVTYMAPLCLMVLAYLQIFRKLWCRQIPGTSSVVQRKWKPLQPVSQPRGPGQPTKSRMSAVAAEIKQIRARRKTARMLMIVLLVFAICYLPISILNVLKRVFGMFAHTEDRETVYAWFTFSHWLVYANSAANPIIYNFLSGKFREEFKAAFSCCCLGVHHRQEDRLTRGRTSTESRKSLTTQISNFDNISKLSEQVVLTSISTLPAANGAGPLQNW

[48] = target: T1, Orexin/Hypocretin receptor type 1; assay: Displacement of [3H]SB-674042 from recombinant human OX1R extracted from HEK293T membrane by radioligand binding assay; format: cell membranes
Orexin receptor type 2 [49] = target: T2, Orexin receptor type 2; assay: Displacement of […]5IBOM from OX2R (unknown origin) transfected in CHO cells assessed as inhibition constant incubated for 1.5 hrs by automated gamma-counter analysis; format: cell-based

## C[C@H]1CN(c2nc3ccc(F)cc3s2)CCCN1C(=O)c1cc([18F])ccc1-n1nccn1
[1]
  Drug uptake: 2.93 % ID/g
[2]
  Drug uptake: 12.6 % ID/g
[3]
  Drug uptake: 4.37 % ID/g
[4]
  Drug uptake: 0.88 % ID/g
[5]
  Drug uptake: 2.32 % ID/g
[6]
  Drug uptake: 15.4 % ID/g
[7]
  Drug uptake: 1.33 % ID/g
[8]
  Drug uptake: 2.13 %ID
[9]
  Drug uptake: 20.4 % ID/g
[10]
  Drug uptake: 5.3 % ID/g
[11]
  Drug uptake: 30.5 % ID/g
[12]
  Drug uptake: 6.04 % ID/g
[13]
  Drug uptake: 1.11 % ID/g
[14]
  Drug uptake: 1.1 % ID/g
[15]
  Drug uptake: 0.36 % ID/g
[16]
  Drug uptake: 0.09 % ID/g
[17]
  Drug uptake: 1.18 % ID/g
[18]
  Drug uptake: 6 % ID/g
[19]
  Drug uptake: 11.5 % ID/g
[20]
  Drug uptake: 3.05 % ID/g
[21]
  Drug uptake: 0.42 % ID/g
[22]
  Drug uptake: 0.67 % ID/g
[23]
  Drug uptake: 2.64 % ID/g
[24]
  Drug uptake: 4.79 % ID/g
[25]
  Drug uptake: 1.24 % ID/g
[26]
  Drug uptake: 0.61 % ID/g
[27]
  Drug uptake: 27.5 % ID/g
[28]
  Drug uptake: 8.38 % ID/g
[29]
  Drug uptake: 0.55 % ID/g
[30]
  Drug uptake: 3.39 % ID/g
[31]
  Drug uptake: 1.03 %ID
[32]
  Drug uptake: 0.29 % ID/g
[33]
  Drug uptake: 0.21 % ID/g
[34]
  Drug uptake: 0.76 % ID/g
[35]
  Drug uptake: 2.48 % ID/g
[36]
  Drug uptake: 0.98 %ID
[37]
  Drug uptake: 0.56 % ID/g
[38]
  Drug uptake: 1.5 % ID/g
[39]
  Drug uptake: 7.83 % ID/g
[40]
  Drug uptake: 2.88 % ID/g
[41]
  Drug uptake: 1.77 % ID/g
[42]
  Drug uptake: 0.42 % ID/g
[43]
  Drug uptake: 1.18 %ID
[44]
  Drug uptake: 2.15 % ID/g

## Cc1ccc(-n2nccn2)c(C(=O)N2CCCN(c3nc4cc(Cl)ccc4o3)C[C@@H]2C)c1
[45]
  Ki: 1.12 nM
[46]
  Ratio Ki: 8.71
Homo sapiens
  Ratio IC50: 2.4
Orexin receptor type 2 [47]
  IC50: 2 nM
[48]
  IC50: 0.83 nM
Orexin receptor type 2 [49]
  Ki: 9.79 nM

## CC[C@H](C)[C@H]1CN(c2nc3cc(Cl)ccc3o2)CCCN1C(=O)c1cc(C)ccc1-n1nccn1
Homo sapiens
  Ratio IC50: 75
Orexin receptor type 2 [47]
  IC50: 54 nM
[48]
  IC50: 0.72 nM
